Assays:
Assay in all cases: relative viability (nuclei count vs DMSO), 5 days (fraction); higher = more cells survive
Kobe2602 + OSI-027 = compound: C1=CC(=CC=C1NC(=S)NNC2=C(C=C(C=C2[N+](=O)[O-])C(F)(F)F)[N+](=O)[O-])F [Kobe2602] + COc1cccc2cc(-c3nc([C@H]4CC[C@H](C(=O)O)CC4)n4ncnc(N)c34)[nH]c12 [OSI-027] (partner 0.5 µM)
In short: (§1)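 Lung cancer cell lines were seeded in 1536-well plates and dosed by pin tool the next day, with either a single drug or a fixed anchor-drug dose combined with five library-drug doses (not always all listed) spaced in √10 steps. Five days later, one step fixed the cells and stained their nuclei (final 0.05% Triton X-100, 1% formaldehyde, 1 ug/ml Hoechst), and nuclei were counted on 4× images. Relative viability is the nuclei count in treated wells divided by the count in vehicle wells, and each value is the median of duplicate plates.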

Cabozantinib + AZD7762 = compound: COc1cc2nccc(Oc3ccc(NC(=O)C4(C(=O)Nc5ccc(F)cc5)CC4)cc3)c2cc1OC [Cabozantinib] + NC(=O)Nc1cc(-c2cccc(F)c2)sc1C(=O)N[C@H]1CCCNC1 [AZD7762] (partner 0.2 µM)
In short: as §1

Zosuquidar + OSI-027 = compound: O[C@@H](COc1cccc2ncccc12)CN1CCN([C@@H]2c3ccccc3[C@@H]3[C@H](c4ccccc42)C3(F)F)CC1 [Zosuquidar] + COc1cccc2cc(-c3nc([C@H]4CC[C@H](C(=O)O)CC4)n4ncnc(N)c34)[nH]c12 [OSI-027] (partner 0.5 µM)
In short: as §1

Zosuquidar + Phenformin = compound: O[C@@H](COc1cccc2ncccc12)CN1CCN([C@@H]2c3ccccc3[C@@H]3[C@H](c4ccccc42)C3(F)F)CC1 [Zosuquidar] + N=C(N)NC(=N)NCCc1ccccc1 [Phenformin] (partner 250 µM)
In short: as §1

Cell Line | relative viability (Kobe2602 + OSI-027; first compound 0.2 µM) | relative viability (Kobe2602 + OSI-027; first compound 0.6325 µM) | relative viability (Kobe2602 + OSI-027; first compound 2 µM) | relative viability (Kobe2602 + OSI-027; first compound 6.325 µM) | relative viability (Kobe2602 + OSI-027; first compound 20 µM) | relative viability (Cabozantinib + AZD7762; first compound 0.02 µM) | relative viability (Cabozantinib + AZD7762; first compound 0.06325 µM) | relative viability (Cabozantinib + AZD7762; first compound 0.2 µM) | relative viability (Cabozantinib + AZD7762; first compound 0.6325 µM) | relative viability (Cabozantinib + AZD7762; first compound 2 µM) | relative viability (Zosuquidar + OSI-027; first compound 0.01 µM) | relative viability (Zosuquidar + OSI-027; first compound 0.03162 µM) | relative viability (Zosuquidar + OSI-027; first compound 0.1 µM) | relative viability (Zosuquidar + OSI-027; first compound 0.3162 µM) | relative viability (Zosuquidar + OSI-027; first compound 1 µM) | relative viability (Zosuquidar + Phenformin; first compound 0.01 µM) | relative viability (Zosuquidar + Phenformin; first compound 0.03162 µM) | relative viability (Zosuquidar + Phenformin; first compound 0.1 µM) | relative viability (Zosuquidar + Phenformin; first compound 0.3162 µM) | relative viability (Zosuquidar + Phenformin; first compound 1 µM)
NCI-H838 | 0.427 | 0.433 | 0.397 | 0.417 | 0.371 | 1 | 0.74 | 0.908 | 0.93 | 0.866 | 0.411 | 0.323 | 0.303 | 0.38 | 0.41 | 0.568 | 0.418 | 0.432 | 0.663 | 0.576
NCI-H1944 | 0.453 | 0.48 | 0.391 | 0.416 | 0.464 | 0.492 | 0.552 | 0.598 | 0.55 | 0.69 | 0.381 | 0.384 | 0.328 | 0.479 | 0.412 | 0.19 | 0.192 | 0.196 | 0.225 | 0.196
NCI-H1437 | 0.913 | 0.913 | 0.891 | 0.949 | 0.855 | 1.16 | 1.18 | 1.19 | 1.21 | 1.04 | 0.865 | 0.889 | 0.765 | 1.12 | 0.871 | 0.31 | 0.327 | 0.287 | 0.313 | 0.328
RERF-LC-KJ | 0.615 | 0.485 | 0.555 | 0.481 | 0.257 | 0.811 | 1.06 | 0.963 | 0.946 | 1.01 | 0.543 | 0.565 | 0.634 | 0.691 | 0.623 | 0.41 | 0.45 | 0.397 | 0.402 | 0.355
NCI-H1395 | 0.633 | 0.866 | 0.717 | 0.731 | 0.651 | 0.367 | 0.445 | 0.436 | 0.42 | 0.401 | 0.653 | 0.578 | 0.552 | 0.797 | 0.677 | 0.44 | 0.482 | 0.418 | 0.497 | 0.466
NCI-H1651 | 0.604 | 0.663 | 0.674 | 0.618 | 0.652 | 0.391 | 0.544 | 0.444 | 0.438 | 0.39 | 0.78 | 0.694 | 0.633 | 0.657 | 0.725 | 0.314 | 0.343 | 0.282 | 0.401 | 0.307
NCI-H1734 | 0.657 | 0.68 | 0.619 | 0.588 | 0.745 | 0.522 | 0.655 | 0.563 | 0.575 | 0.544 | 0.587 | 0.612 | 0.541 | 0.697 | 0.662 | 0.395 | 0.372 | 0.407 | 0.466 | 0.385
PC-14 | 0.836 | 0.887 | 0.87 | 0.792 | 0.339 | 0.323 | 0.415 |  | 0.406 | 0.354 | 0.903 | 0.714 | 0.826 | 1.02 | 0.78 | 0.502 | 0.533 | 0.447 | 0.645 | 0.47
NCI-H2347 | 0.425 | 0.495 | 0.403 | 0.278 | 0.571 | 0.748 | 0.889 | 0.668 | 0.378 | 0.444 | 0.434 | 0.398 | 0.238 | 0.481 | 0.475 | 0.411 | 0.394 | 0.253 | 0.396 | 0.426
NCI-H1793 | 0.252 | 0.218 | 0.238 | 0.275 | 0.327 | 0.413 | 0.625 |  | 0.579 | 0.17 | 0.315 | 0.389 |  | 0.287 | 0.311 | 0.387 | 0.346 |  | 0.469 | 0.359
NCI-H650 | 0.514 | 0.593 | 0.477 | 0.529 | 0.527 | 0.959 | 1.24 | 0.938 | 1.04 | 0.982 | 0.514 | 0.477 | 0.433 | 0.553 | 0.576 | 0.464 | 0.42 | 0.379 | 0.482 | 0.448
NCI-H596 | 0.802 | 0.698 | 0.661 | 0.56 | 0.815 | 1.12 | 1.35 | 1.15 | 1.07 | 1.09 | 0.714 |  | 0.724 | 1.01 | 0.689 | 0.765 |  | 0.798 | 0.909 | 0.761

Reference: the supplement of paper PMC10307832
